Earlier results, collected in patent US10639343B2, “Preparation method of Gynostemma pentaphyllum leaves extract and Gynostemma pentaphyllum extract prepared by the method thereof” (BTC CORPORATION, priority 2018, dated 2020).

Conditions: intraperitoneal injection, without training

NC(=O)c1ncn([C@@H]2O[C@H](COP(=O)(O)O)[C@@H](O)[C@H]2O)c1N [AICAR, 5-aminoimidazole-4-carboxamide ribonucleotide]
increase of the distance of exercise performance: 44%
